# Results reported in patent US20200289645A1, “TREATMENTS AND METHODS FOR CONTROLLING HYPERTENSION” (Georgetown University, priority 2017, published 2020).
# Entries after “also recorded” stand apart in the source; their conditions may differ.
# Key:
# cremaster arterioles = experiment: Cremaster arteriole contractility in vivo (superfusion, intravital microscopy); set-up: species or system mice
# Procedure: FIG. 3 depicts the effect of the induction of BP1 expression on cremaster arteriole contractility in vivo. 3A, Representative images of a single arteriole in a live animal at baseline, and after constriction or dilation by superfusion with AngII or acetylcholine respectively. The vessel diameter is recorded by intravital microphotography. 3B, Dose-response of AngII on arteriole diameter in mice with BP1 OFF (open symbols) or ON (for 48 hours; closed symbols). The FGFR kinase inhibitor PD173074 (PD) was administered intraperitoneally to a subset of animals (red symbols). […] 3C, Dose response of Phenylephrine (PE) on cremaster arteriole diameter in mice with BP1 OFF (open symbols) or ON (for 48 hours; closed symbols). Mean±SEM, n=4 animals/group.
# To evaluate whether conditional BP1 expression sensitized resistance vessels in vivo, cremaster arterioles were exposed in anesthetized mice and superfused locally with vasoconstrictor or -dilator ligands. Representative intravital microscopic images of an arteriole at baseline, with AngII (constriction) or acetylcholine (dilation) superfusion is shown in FIG. 3A. […] This sensitization was prevented by pretreatment of animals with the FGFR kinase inhibitor PD173074 23 (FIG. 3B).
# Thus, phenylephrine (PE) was selected as a ligand that activates alphal-adrenergic receptors. […] Neither the EC50 (2 μM) nor the maximal effect of PE were different between the BP1 ON and OFF groups (FIG. 3C). Thus, conditional expression of BP1 sensitizes arterioles to AngII in vivo. This sensitization was dependent on FGFR signaling.
# [1] = test system: isolated renal afferent arterioles; experiment: Isolated perfused renal afferent arteriole contractility; format: cell-based, mice
# Source text: FIG. 4 depicts the effect of BP1 on isolated renal afferent arteriole contractility. 4A, Isolated perfused renal afferent arteriole mounted on a perfusion pipette with diameter recorded. The internal diameter is 10 to 11 micrometers under control conditions (=100%). 4B to 4D, Impact of BP1 induction and/or FGF2 knockout (FGF2−/−) on angiotensin II (AngII) or norepinephine (NE) contractility. 4B, Effect of conditional BP1 expression (BP1 ON/OFF). […] The effect of AngII in FGF2−/− mice is shown for comparison (see panel C). 4C, Effect of AngII in afferent arterioles from FGF2−/− mice. […] BP1 alone or FGF2 alone are shown for comparison. 4D, Effect of NE in afferent arterioles from wt and FGF2−/− mice. Contractility induced by NE is not affected in FGF2−/− mice.
# Isolated vessels provide an approach for the analysis of vascular function that is not affected by systemic cardiovascular regulation in the intact animal. BP1 up-regulation related to human hypertension was found in the kidneys that are key organs in systemic blood pressure regulation. Thus, the impact of BP1 expression was evaluated in isolated renal afferent arterioles that are the major renal resistance vessels. […] Addition of AngII to this preparation leads to a concentration-dependent constriction. […] Thus, the AngII contractile effect depends on FGFR signaling in isolated vessels as well as in arterioles in vivo (FIG. 3B).
# The blockade of AngII effects in vessels from wt mice by an FGFR kinase inhibitor (FIG. 4B) corroborates the crucial role of FGF signaling for AngII efficacy. It is noteworthy that vessels from FGF2−/− mice still contracted in response to other ligands. For example, the effect of norepinephrine (NE) was indistinguishable between FGF2−/− and wt controls (FIG. 4D) indicating a selective crosstalk between AngII and FGF signaling. Renal AngII receptor 1 (AT1R) mRNA was not changed upon induction of BP1 expression or in FGF2−/− mice.
# Because FGF2 and BP1 are extracellularly acting proteins, recombinant proteins were added to renal afferent arterioles from FGF2−/− mice to assess if this would rescue AngII vasoconstriction.
# [2] = test system: conscious transgenic mice; experiment: Mean arterial pressure (MAP) by telemetry in conscious conditional BP1 transgenic mice; format: in vivo; conditions: night time MAP
# Procedure: FIG. 2 depicts the effect of conditional expression of the BP1 transgene and of inhibitors on mean arterial pressure (MAP) and heart rate (HR). 2A, 2B, Circadian changes in MAP (A) and HR (B) by telemetry of conscious mice. Averages for 10 days before (BP1 OFF, open symbols) and 10 days after the induction of the BP1 transgene (BP1 ON, closed symbols) relative to the 24 hour clock time. Dark and light periods are indicated. Mean±SEM values (for n=10 time points) from one representative animal (total n=6). P<0.0001 by non-linear regression analysis and ANOVA. 2C, Effect of induction of BP1 transgene expression on night time MAP. Gene expression was induced by switching from a tetracycline containing to a regular chow (+DOX to −DOX; open and filled circles). Non-transgenic littermates (non-TG; triangles) were subjected to the same diet schedule. Mean±SEM of night time MAP; n=6 per group. ANOVA analysis of BP1 ON versus OFF or versus control group. ***, P<0.0001. 2D, 2E, Effect of treatment with candesartan (D) or tempol (E) on night time MAP of animals with the BP1 transgene OFF or ON. Mean±SEM; n=5 per group. *, P<0.05; **, P<0.01; ***, P<0.0001 by ANOVA.
# To test the effect of conditional expression of BP1, mean arterial pressure (MAP) was monitored by telemetry in conscious transgenic mice. Under control conditions (BP1 OFF) there was a circadian rhythm of MAP that varied by 20 mm Hg between periods of activity (night time) and rest (day time). A sinus wave function described the day/night variation of the data (FIG. 2A). […] This overall increase in MAP coincided with a significant decrease in the heart rate and a dampened amplitude of circadian regulation (FIG. 2B). The increase of blood pressure occurred within two days of a switch to the tetracycline-free, regular diet in parallel with the induction of the BP1 transgene (FIG. 2C).
# The increase in MAP and decrease in heart rate after induction of BP1 expression (FIG. 2A,B) was reminiscent of an angiotensin-like vasopressor effect that depends on reactive oxygen species (ROS) signaling. […]
# FGF2−/− mice = experiment: Telemetric MAP in FGF2-/- mice after exogenously administered AngII; format: in vivo; conditions: FGF2−/− relative to wild-type mice
# Source text: Kidneys contain amongst the highest concentrations of FGF2 protein that is immobilized in the extracellular matrix and can be released by BP1. To assess a contribution by FGF2, the efficacy of AngII was investigated and the crosstalk with BP1 in renal afferent arterioles from FGF2−/− mice. […] Also, the effect of exogenously administered AngII on MAP was reduced.
molecule,measurement,setting,value
"CNC[C@H](O)c1cccc(O)c1 [PE, phenylephrine]",sensitization of vessels by BP1 expression,cremaster arterioles; BP1 ON versus OFF,did not sensitize
same,EC50,"cremaster arterioles; Mus musculus, not different between BP1 ON and OFF groups, read-out: EC50 of PE on cremaster arteriole diameter",2000 nM
FGF2: recombinant fibroblast growth factor 2 protein,rescue of AngII vasoconstriction in afferent arterioles from FGF2-/- mice,"[1]; recombinant proteins added, 20 ng/ml for 30 min",did not impact the AngII response
CCN(CC)CCCCNc1ncc2cc(-c3cc(OC)cc(OC)c3)c(NC(=O)NC(C)(C)C)nc2n1 [PD173074],effect on AngII constriction of afferent arterioles,[1]; 100 nM pretreatment of vessels,inhibited the effect of AngII
same,effect on AngII response in control animals,"cremaster arterioles; BP1 OFF, intraperitoneal",small and insignificant effect
same,effect on BP1-induced sensitization to AngII vasoconstriction,"cremaster arterioles; BP1 ON, pretreatment, intraperitoneal",prevented
"CC1(C)CC(O)CC(C)(C)N1[O] [Tempol, tempol]",effect on basal MAP,[2]; BP1 OFF,reduced basal MAP
same,effect on increase of MAP after BP1 induction,[2],prevented the increase in MAP after BP1 induction
same,effect on increase of MAP after BP1 induction,[2]; listed as tempol,prevented
"CC[C@H](C)[C@H](NC(=O)[C@H](Cc1ccc(O)cc1)NC(=O)[C@@H](NC(=O)[C@H](CCCNC(=N)N)NC(=O)[C@@H](N)CC(=O)O)C(C)C)C(=O)N[C@@H](Cc1c[nH]cn1)C(=O)N1CCC[C@H]1C(=O)N[C@@H](Cc1ccccc1)C(=O)O [AngII, Angiotensin II]",AngII effect in afferent arterioles after conditional BP1 transgene expression,[1]; BP1 ON versus OFF,increases the AngII effect; also recorded: significantly enhanced effect
same,contraction of afferent arterioles from FGF2-/- mice,[1]; FGF2−/− mice,abolished; also recorded: failed to induce a contraction
same,effect of exogenously administered AngII on MAP,FGF2−/− mice,reduced
NC[C@H](O)c1ccc(O)c(O)c1 [norepinephrine],contractility in FGF2-/- versus wt afferent arterioles,[1],indistinguishable
same,contractility in FGF2-/- versus wt afferent arterioles,[1]; listed as NE,not affected
